Laboratory results reported in US12281304B2, “Compositions and methods for treating and preventing muscular disorders and dystrophies, steroid side effects, and inflammation” (Children's National Medical Center, priority 2018, dated 2025).

How the values were obtained:
[1] = tested on: miRNAs in diaphragm muscle of mdx mice; test: qRT-PCR of individual miRNAs in diaphragm, validation set (4-month treatment, treadmill-run mdx mice); type: in vivo, mouse; details: 6 months of age, prednisolone 5 mg/kg, vamorolone 45 mg/kg; for expression of the other seven inflammatory miRNAs: P≤0.05
Excerpt: Archival muscle samples (diaphragm) from two separate preclinical studies were obtained, with each trial showing a significant benefit from both prednisolone and vamorolone drug treatments (23). Prednisolone was used because it is the active form of prednisone, the current DMD standard of care. The first, “discovery set” of diaphragm muscles was from a prophylactic trial design where 2-week old (postnatal day 15) mdx or wild type control mice received oral dosing for 6 weeks with vehicle (cherry syrup), prednisolone (5 mg/kg), or vamorolone (15 mg/kg) as previously reported (23). The second, “validation set” of diaphragm muscles was from an extended trial in older mice where mdx or wild type mice were subjected to treadmill running to unmask mild phenotypes. Mice in this validation set were treated with either vehicle, prednisolone (5 mg/kg) or vamorolone (45 mg/kg) for four months beginning at two months of age (23). At the endpoint of each trial, diaphragm muscles were harvested and frozen in liquid nitrogen-cooled isopentane.
Specific miRNAs were quantified in the validation set of samples using individual TaqMan assays specific for each miRNA (ThermoFisher; Carlsbad, Calif.) according to the manufacturer's protocol. Assay IDs used include 000468, 001346, 002455, 001280, 000528, 002352, 000464, 002509, and 002248. Total RNA was converted to cDNA using multiplexed RT primers and High Capacity cDNA Reverse Transcription Kit (ThermoFisher; Carlsbad, Calif.). The cDNA was pre-amplified using TaqMan PreAmp Master Mix (ThermoFisher; Carlsbad, Calif.). The miRNAs were then quantified using individual TaqMan assays on an ABI QuantStudio 7 real time PCR machine (Applied Biosystems; Foster City, Calif.).
In the discovery set experiments, levels of each miRNA were quantified in TaqMan low-density arrays using ThermoFisher Cloud software with the Relative Quantification Application (ThermoFisher; Carlsbad, Calif.) tool. Data was analyzed by ANOVA with post-hoc comparison of each group to the mdx vehicle-treated group. […] A P-value of P≤0.05 was set as the significance threshold, without adjustment for multiple comparisons. To reduce false-positive discovery in this setting, an evidence-based approach was used to identify efficacy associated miRNAs where 1) results from the multiple groups were cross-referenced, and 2) all candidate miRNAs identified in this discovery set were then assayed in a separate validation set of mice. For the validation set experiments, levels of each individual miRNA were assayed in samples from a second, independent preclinical trial in adult mdx mice. Data from individual TaqMan Assays was quantified using QuantStudio Real-Time PCR version 1.3 software (Applied Biosystems; Foster City, Calif.). […]

[2] = biological target: T1, glucocorticoid receptor (GR) (Homo sapiens, UniProt P04150); details: cited from earlier work
T1 sequence (P04150 1-777): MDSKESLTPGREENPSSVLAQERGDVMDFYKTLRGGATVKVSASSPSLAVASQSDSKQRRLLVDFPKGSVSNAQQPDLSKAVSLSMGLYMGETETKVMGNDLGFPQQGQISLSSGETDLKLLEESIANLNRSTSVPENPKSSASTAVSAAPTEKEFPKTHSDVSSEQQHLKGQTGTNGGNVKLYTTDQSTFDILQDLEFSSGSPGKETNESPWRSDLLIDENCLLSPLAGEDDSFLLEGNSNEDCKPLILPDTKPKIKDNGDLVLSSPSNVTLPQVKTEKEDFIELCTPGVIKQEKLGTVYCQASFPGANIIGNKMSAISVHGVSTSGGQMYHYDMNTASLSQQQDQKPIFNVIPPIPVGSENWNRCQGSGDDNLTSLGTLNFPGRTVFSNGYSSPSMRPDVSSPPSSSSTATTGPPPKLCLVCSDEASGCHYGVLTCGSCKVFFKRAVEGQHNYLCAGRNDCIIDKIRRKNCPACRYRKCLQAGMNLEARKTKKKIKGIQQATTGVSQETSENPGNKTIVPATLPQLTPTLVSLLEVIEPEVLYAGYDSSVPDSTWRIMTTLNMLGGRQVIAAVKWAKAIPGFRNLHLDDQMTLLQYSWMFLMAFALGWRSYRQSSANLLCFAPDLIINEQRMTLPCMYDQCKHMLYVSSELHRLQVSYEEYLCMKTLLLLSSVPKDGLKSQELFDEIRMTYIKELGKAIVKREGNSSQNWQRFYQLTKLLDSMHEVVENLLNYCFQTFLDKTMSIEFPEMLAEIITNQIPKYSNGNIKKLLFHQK

[3] = preclinical mdx mouse and human Phase I trials; cited from earlier work

SMILES: C[C@]12C=CC(=O)C=C1CC[C@@H]1[C@@H]2[C@@H](O)C[C@@]2(C)[C@H]1CC[C@]2(O)C(=O)CO [prednisolone]
- response of miR-301a to drug treatment [1]: did not respond to drug treatment
- expression of the other seven inflammatory miRNAs [1]: significant decrease towards healthy wild type levels

SMILES: C[C@@H]1C[C@H]2[C@@H]3CCC4=CC(=O)C=C[C@]4(C)C3=CC[C@]2(C)[C@@]1(O)C(=O)CO [vamorolone]
- response of miR-301a to drug treatment [1]: did not respond to drug treatment
- expression of the other seven inflammatory miRNAs [1]: significant decrease towards healthy wild type levels
- binding to the GR [2]: high affinity
- steroidal side effects in comparison to prednisone [3]: avoids or has substantially reduced steroidal side effects in comparison to prednisone
